Data taken from patent publication US11759791B2, “Jet milling method” (VECTURA LIMITED, priority 2015, dated 2023).

Assay: Particle size analysis (wet analysis), Malvern Mastersizer 3000 Hydro MV
Assay type: physicochemical
Settings: unmicronised / as supplied, wet analysis method
Procedure: […] The pump speed was set to 3000 rpm. […] The dispersed particles were added to the dispersion unit to reach an obscuration of 5-15%. The optical properties used included a refractive index of 1.52 and an absorption value of 1.0 for the glycopyrrolate, and a refractive index of 1.45 and an absorption value of 1.0 for the magnesium stearate and a refractive index of 1.391 for the iso-octane. Six replicates were performed per measurement.

Compound	D10 particle size of source powder [μm]	D50 particle size of source powder [μm]	D90 particle size of source powder [μm]
C[N+]1(C)CCC(OC(=O)C(O)(c2ccccc2)C2CCCC2)C1 (stereo not drawn) [Unmicronised glycopyrrolate, glycopyrrolate]	20.6	148.7	409.7
magnesium stearate	2.8	8.8	27.4
